In patent US8192962B2, “Processes for detecting toxic substances” (Daikin Industries, Ltd., priority 2001, dated 2012):

Tested on: Unknown protein yeast genes
Experiment: DNA chip mRNA expression in yeast, unknown protein yeast genes (Table 1)
Assay type: cell-based, Saccharomyces cerevisiae S288C
Experimental: Yeast (Saccharomyces cerevisiae S288C (α SUC2mal mel gap2 CUP1)) were incubated at 25° C. on YPD medium (yeast extract 1%, polypepton 2%, glucose 2%). One of toxic chemical substances was added to the cells at logarithmic growth phase, and the cells were further incubated for two hours. Cells were cultured without any chemical substance in the same condition, and were used as control. Concentrations of the chemical substances were defined to inhibit the growth of the yeast but not lead to death.
After completion of the incubation, the culture was centrifuged to collect the cells. To the cells, sodium acetate buffer (50 mM sodium acetate, 10 mM EDTA, 1% SDS) was added, and the mixture was shaken at 65° C. for five minutes, followed by returning to room temperature, and obtaining the supernatant, of which the procedures were repeated two times. To the supernatant, ½ amount of a solution of phenol/chloroform was added, and the mixture was centrifuged to give a supernatant, which was added with an equal amount of chloroform, and the mixture was centrifuged to give a supernatant. To the supernatant, an equal amount of isopropanol containing 0.3 M sodium acetate was added, and the mixture was allowed to stand at room temperature for 30 minutes, after which the mixture was centrifuged to give a sediment of the whole RNAs. Seventy % ethanol was added to the sediment, and the mixture was again centrifuged to give a sediment, which was then dried and dissolved in water. mRNA was isolated from the whole RNAs as followings. In view of the fact that a poly A chain is attached to the 3′ terminus of mRNA, a polynucleotide having a poly T structure which was immobilized on the surface of latex beads was used to trap the mRNA, and then the mRNA was washed and eluted with spine column (Oligotex-dT30<Super>mRNA Purification Kit, Takara). Reverse transcription of the mRNA was conducted with a reverse transcriptase (Super Script II Reverse Transcriptase; catalogue No. 18064-014, GibcoBRL) using fluorescence-labeled nucleotides to give cDNAs that were introduced with Cy3-dUTP or Cy5-dUTP during the reverse transcription.
The labeled cDNAs were dissolved in TE buffer (10mM Tris-HCl/1 mM EDTA, pH8.0), and the solution was dropped on the DNA chip containing the whole genes of yeast (DNA Chip Research Inc. Japan) so that the cDNAs were hybridized on the DNA chip at 65° C. for over 12 hours. The fluoresces intensity of the DNA chip was read with a scanner, and the ratio relative to the fluorescence intensity resulting from the absence of chemical substance was estimated as the following, which is shown in Tables 1 to 9: […]

In the case of `[Cl][Pb][Cl]` [(4), PbCl2], the “The level of expressed mRNA in the presence of chemical substance/The level of expressed mRNA in the absence of chemical substance” value (yeast gene YKL195W, incubated two hours with chemical substance) is reported as 1.1, the “The level of expressed mRNA in the presence of chemical substance/The level of expressed mRNA in the absence of chemical substance” value (yeast gene YKR091W, incubated two hours with chemical substance) is reported as 3.5 and the “The level of expressed mRNA in the presence of chemical substance/The level of expressed mRNA in the absence of chemical substance” value (yeast gene YLR054C, incubated two hours with chemical substance) is reported as 2.4. For the same molecule, the “The level of expressed mRNA in the presence of chemical substance/The level of expressed mRNA in the absence of chemical substance” value (yeast gene YLR149C, incubated two hours with chemical substance) was 2.3, the “The level of expressed mRNA in the presence of chemical substance/The level of expressed mRNA in the absence of chemical substance” value (yeast gene YLR152C, incubated two hours with chemical substance) was 0.9 and the “The level of expressed mRNA in the presence of chemical substance/The level of expressed mRNA in the absence of chemical substance” value (yeast gene YLR194C, incubated two hours with chemical substance) was 3.6. For the same molecule, the “The level of expressed mRNA in the presence of chemical substance/The level of expressed mRNA in the absence of chemical substance” value (yeast gene YLR324W, incubated two hours with chemical substance) was 1.0, the “The level of expressed mRNA in the presence of chemical substance/The level of expressed mRNA in the absence of chemical substance” value (yeast gene YLR350W, incubated two hours with chemical substance) was 2.3 and the “The level of expressed mRNA in the presence of chemical substance/The level of expressed mRNA in the absence of chemical substance” value (yeast gene YLR387C, incubated two hours with chemical substance) was 0.6. The “The level of expressed mRNA in the presence of chemical substance/The level of expressed mRNA in the absence of chemical substance” value (yeast gene YLR460C) was 1.1, the “The level of expressed mRNA in the presence of chemical substance/The level of expressed mRNA in the absence of chemical substance” value (yeast gene YML117W, incubated two hours with chemical substance) was 1.6 and the “The level of expressed mRNA in the presence of chemical substance/The level of expressed mRNA in the absence of chemical substance” value (yeast gene YMR009W, incubated two hours with chemical substance) was 1.9. For the same molecule, the “The level of expressed mRNA in the presence of chemical substance/The level of expressed mRNA in the absence of chemical substance” value (yeast gene YMR067C, incubated two hours with chemical substance) was 0.4, the “The level of expressed mRNA in the presence of chemical substance/The level of expressed mRNA in the absence of chemical substance” value (yeast gene YMR090W) was 3.5 and the “The level of expressed mRNA in the presence of chemical substance/The level of expressed mRNA in the absence of chemical substance” value (yeast gene YMR095C, incubated two hours with chemical substance) was 1.0. For the same molecule, the “The level of expressed mRNA in the presence of chemical substance/The level of expressed mRNA in the absence of chemical substance” value (yeast gene YMR097C, incubated two hours with chemical substance) was 1.6, the “The level of expressed mRNA in the presence of chemical substance/The level of expressed mRNA in the absence of chemical substance” value (yeast gene YMR102C, incubated two hours with chemical substance) was 0.8 and the “The level of expressed mRNA in the presence of chemical substance/The level of expressed mRNA in the absence of chemical substance” value (yeast gene YMR107W, incubated two hours with chemical substance) was 18.4. The “The level of expressed mRNA in the presence of chemical substance/The level of expressed mRNA in the absence of chemical substance” value (yeast gene YMR180C, incubated two hours with chemical substance) was 1.3, the “The level of expressed mRNA in the presence of chemical substance/The level of expressed mRNA in the absence of chemical substance” value (yeast gene YMR184W, incubated two hours with chemical substance) was 1.1 and the “The level of expressed mRNA in the presence of chemical substance/The level of expressed mRNA in the absence of chemical substance” value (yeast gene YMR191W, incubated two hours with chemical substance) was 1.6. For the same molecule, the “The level of expressed mRNA in the presence of chemical substance/The level of expressed mRNA in the absence of chemical substance” value (yeast gene YMR295C, incubated two hours with chemical substance) was 1.6, the “The level of expressed mRNA in the presence of chemical substance/The level of expressed mRNA in the absence of chemical substance” value (yeast gene YMR316W, incubated two hours with chemical substance) was 1.9 and the “The level of expressed mRNA in the presence of chemical substance/The level of expressed mRNA in the absence of chemical substance” value (yeast gene YNL044W, incubated two hours with chemical substance) was 1.3. The “The level of expressed mRNA in the presence of chemical substance/The level of expressed mRNA in the absence of chemical substance” value (yeast gene YNL074C, incubated two hours with chemical substance) was 1.2, the “The level of expressed mRNA in the presence of chemical substance/The level of expressed mRNA in the absence of chemical substance” value (yeast gene YNL092W, incubated two hours with chemical substance) was 1.8 and the “The level of expressed mRNA in the presence of chemical substance/The level of expressed mRNA in the absence of chemical substance” value (yeast gene YNL115C, incubated two hours with chemical substance) was 1.4. For the same molecule, the “The level of expressed mRNA in the presence of chemical substance/The level of expressed mRNA in the absence of chemical substance” value (yeast gene YNL156C, incubated two hours with chemical substance) was 1.3, the “The level of expressed mRNA in the presence of chemical substance/The level of expressed mRNA in the absence of chemical substance” value (yeast gene YNL234W, incubated two hours with chemical substance) was 1.8 and the “The level of expressed mRNA in the presence of chemical substance/The level of expressed mRNA in the absence of chemical substance” value (yeast gene YNL281W, incubated two hours with chemical substance) was 1.4. For the same molecule, the “The level of expressed mRNA in the presence of chemical substance/The level of expressed mRNA in the absence of chemical substance” value (yeast gene YNL305C, incubated two hours with chemical substance) was 1.4, the “The level of expressed mRNA in the presence of chemical substance/The level of expressed mRNA in the absence of chemical substance” value (yeast gene YNR068C, incubated two hours with chemical substance) was 2.6 and the “The level of expressed mRNA in the presence of chemical substance/The level of expressed mRNA in the absence of chemical substance” value (yeast gene YOL032W, incubated two hours with chemical substance) was 1.3. For the same molecule, the “The level of expressed mRNA in the presence of chemical substance/The level of expressed mRNA in the absence of chemical substance” value (yeast gene YOL036W, incubated two hours with chemical substance) was 0.8, the “The level of expressed mRNA in the presence of chemical substance/The level of expressed mRNA in the absence of chemical substance” value (yeast gene YOL047C, incubated two hours with chemical substance) was 2.5 and the “The level of expressed mRNA in the presence of chemical substance/The level of expressed mRNA in the absence of chemical substance” value (yeast gene YOL071W, incubated two hours with chemical substance) was 2.0. For the same molecule, the “The level of expressed mRNA in the presence of chemical substance/The level of expressed mRNA in the absence of chemical substance” value (yeast gene YOL082W, incubated two hours with chemical substance) was 2.1, the “The level of expressed mRNA in the presence of chemical substance/The level of expressed mRNA in the absence of chemical substance” value (yeast gene YOL083W, incubated two hours with chemical substance) was 2.8 and the “The level of expressed mRNA in the presence of chemical substance/The level of expressed mRNA in the absence of chemical substance” value (yeast gene YOL117W, incubated two hours with chemical substance) was 1.4. For the same molecule, the “The level of expressed mRNA in the presence of chemical substance/The level of expressed mRNA in the absence of chemical substance” value (yeast gene YOL131W, incubated two hours with chemical substance) was 1.0, the “The level of expressed mRNA in the presence of chemical substance/The level of expressed mRNA in the absence of chemical substance” value (yeast gene YOL150C) was 0.9 and the “The level of expressed mRNA in the presence of chemical substance/The level of expressed mRNA in the absence of chemical substance” value (yeast gene YOL162W, incubated two hours with chemical substance) was 1.4. The “The level of expressed mRNA in the presence of chemical substance/The level of expressed mRNA in the absence of chemical substance” value (yeast gene YOR019W, incubated two hours with chemical substance) was 4.7, the “The level of expressed mRNA in the presence of chemical substance/The level of expressed mRNA in the absence of chemical substance” value (yeast gene YOR197W, incubated two hours with chemical substance) was 1.4 and the “The level of expressed mRNA in the presence of chemical substance/The level of expressed mRNA in the absence of chemical substance” value (yeast gene YPL087W, incubated two hours with chemical substance) was 7.3. The “The level of expressed mRNA in the presence of chemical substance/The level of expressed mRNA in the absence of chemical substance” value (yeast gene YPL196W, incubated two hours with chemical substance) was 1.7, the “The level of expressed mRNA in the presence of chemical substance/The level of expressed mRNA in the absence of chemical substance” value (yeast gene YPL206C, incubated two hours with chemical substance) was 1.9 and the “The level of expressed mRNA in the presence of chemical substance/The level of expressed mRNA in the absence of chemical substance” value (yeast gene YPL222W, incubated two hours with chemical substance) was 1.3. The “The level of expressed mRNA in the presence of chemical substance/The level of expressed mRNA in the absence of chemical substance” value (yeast gene YPR023C, incubated two hours with chemical substance) was 0.8 and the “The level of expressed mRNA in the presence of chemical substance/The level of expressed mRNA in the absence of chemical substance” value (yeast gene YPR151C, incubated two hours with chemical substance) was 4.1.
